Assays:
[1] = Concentrations of radioactivity in whole blood, plasma, WBC depleted blood and recovered white blood cells after single subcutaneous administration of [3H]-AMTX-100; assay type: in vivo, rat; set-up: key to Concentration of radioactivity in Recovered White Blood Cells: BLQ: Below limit of accurate quantification; conditions: 5 mg/kg; for Concentration of radioactivity in WBC depleted blood / Concentration of radioactivity in Whole Blood / Concentration of radioactivity in Plasma / Concentration of radioactivity in Recovered White Blood Cells: rat; for Concentration of radioactivity in Plasma: plasma not depleted of white blood cells; for Concentration of radioactivity in Recovered White Blood Cells: reverse wash of filters; for Cmax, total radioactivity: male non-pigmented rats
Method: [^3H]-NSP labelling. For the main phase of the study, the test protein was prepared, radiolabeled with N-succinimidyl-[2,3-3H]-propionate ([^3H]-NSP) and purified as described below.
Three aliquots of 1.6 mL [^3H]-NSP solution were dispensed into appropriate vials. The solvent was evaporated under a gentle stream of nitrogen gas at ambient temperature. Once enough of the solvent had been evaporated, the three aliquots were combined into one vial and the remaining solvent evaporated until dryness. The residue in the vial was re-suspended in 0.6 mL of 1 mg/mL AMTX-100 by gently vortex mixing to ensure complete mixing of the protein with the labelling reagent. The solutions were allowed to stand at ambient temperature for approximately 1 hour.
The [^3H]-NSP-protein solutions were then purified by reverse phase chromatography techniques and the resulting solution was frozen and lyophilized using a freeze drier. The resulting material was dissolved in 2 mL ethanol:water (50:50) and stored at approximately −20° C. prior to formulation for dose preparation.
Formulation. The required quantities of each radiolabeled test item were combined with the corresponding non-labelled test item as appropriate to achieve a radioactive concentration sufficient to meet the aims of the study. Dose solutions were prepared in PBS buffer pH 7.4, with the intention of administering a total dose volume of […], (2.5 ml/kg, […]).
(§1) Whole blood was collected into tubes containing K2-EDTA as anticoagulant. Following collection, an aliquot of whole blood (approximately 4 mL) was retained for analysis of whole blood and white blood cell (WBC) concentrations. The remaining whole blood samples were processed to plasma. Plasma samples were not depleted of white blood cells.
AMTX-100 was radiolabeled with 3H at lysine residues and injected into Sprague-Dawley rats in a single dose by seven different routes (intravenous, subcutaneous, topical [skin], intratracheal, intraduodenal, esophageal, and oral). The rats were evaluated at various time points, up to 120 hours, by: a) blood samples were taken for pharmacokinetics (PK) by cardiac puncture; b) rats were frozen and sectioned for QWBA and/or micro-auto-radiography and histology; and c) frozen sections were made and freeze dried and exposed to phosphor-storage imaging plates and tissue radioactivity in images was quantified as tissue: blood ratios.
For all PK studies, the following definitions were used: WB=whole blood; Plasma=whole blood depleted of red blood cells; WBCD=whole blood depleted of white blood cells in which the whole blood is passed over a Pall Acrodisc filter (about 60% efficient); WBCs=the cells which bind to, and are washed off, the Pall Acrodisc filter.

[2] = Blood partition calculation after single administration of [3H]-AMTX-100; assay type: in vivo; set-up: Partition coefficient / Non-plasma compartment: unit not given here; conditions: single intravenous (title), 5 mg/kg, rat
Method: Eight male Sprague Dawley rats each received a single IV administration of [^3H]-AMTX-100 and a terminal sample of whole blood (each approximately 5-10 mL) was collected via cardiac puncture under isofluorane anesthesia from a single rat at the following time points: […]
as §1

CSCC[C@@H]1NC(=O)[C@H](CC(C)C)NC(=O)[C@H](CCCCN)NC(=O)[C@H](CCC(N)=O)CC(=O)[C@H](CCCNC(=N)N)NC(=O)[C@H](CCCCN)NC(=O)[C@H](CCCNC(=N)N)NC(=O)[C@H](CCC(N)=O)NC(=O)[C@H](C(C)C)NC(=O)[C@@H](NC(=O)[C@@H]2CCCN2C(=O)[C@H](C)NC(=O)[C@H](CC(C)C)NC(=O)[C@H](CC(C)C)NC(=O)[C@H](C)NC(=O)[C@H](CC(C)C)NC(=O)[C@H](CC(C)C)NC(=O)[C@@H](NC(=O)[C@H](C)NC(=O)[C@@H]2CCCN2C(=O)[C@H](CC(C)C)NC(=O)[C@H](CC(C)C)NC(=O)[C@H](C)NC(=O)[C@@H](NC(=O)[C@H](C)NC(=O)[C@H](C)N)C(C)C)C(C)C)CSSC[C@@H](C(=O)O)NC(=O)[C@@H]2CCCN2C1=O [[^3H]-AMTX-100]
Concentration of radioactivity in WBC depleted blood ([1]; 1 h): 0.015 μg equivalents/mL | Concentration of radioactivity in Whole Blood ([1]; 1 h): 0.081 μg equivalents/mL | Concentration of radioactivity in Plasma ([1]; 1 h): 0.110 μg equivalents/mL | Concentration of radioactivity in Recovered White Blood Cells ([1]; 1 h): BLQ | Concentration of radioactivity in WBC depleted blood ([1]; 2 h): 0.011 μg equivalents/mL | Concentration of radioactivity in Whole Blood ([1]; 2 h): 0.059^3 μg equivalents/mL | Concentration of radioactivity in Plasma ([1]; 2 h): 0.084 μg equivalents/mL | Concentration of radioactivity in Recovered White Blood Cells ([1]; 2 h): BLQ | Concentration of radioactivity in WBC depleted blood ([1]; 4 h): 0.011 μg equivalents/mL | Concentration of radioactivity in Whole Blood ([1]; 4 h): 0.054 μg equivalents/mL | Concentration of radioactivity in Plasma ([1]; 4 h): 0.068 μg equivalents/mL | Concentration of radioactivity in Recovered White Blood Cells ([1]; 4 h): BLQ | Concentration of radioactivity in WBC depleted blood ([1]; 8 h): 0.011 μg equivalents/mL | Concentration of radioactivity in Whole Blood ([1]; 8 h): 0.070 μg equivalents/mL | Concentration of radioactivity in Plasma ([1]; 8 h): 0.090 μg equivalents/mL | Concentration of radioactivity in Recovered White Blood Cells ([1]; 8 h): BLQ | Concentration of radioactivity in WBC depleted blood ([1]; 24 h): 0.021 μg equivalents/mL | Concentration of radioactivity in Whole Blood ([1]; 24 h): 0.120 μg equivalents/mL | Concentration of radioactivity in Plasma ([1]; 24 h): 0.146 μg equivalents/mL | Concentration of radioactivity in Recovered White Blood Cells ([1]; 24 h): BLQ | Concentration of radioactivity in WBC depleted blood ([1]; 48 h): 0.033 μg equivalents/mL | Concentration of radioactivity in Whole Blood ([1]; 48 h): 0.186 μg equivalents/mL | Concentration of radioactivity in Plasma ([1]; 48 h): 0.221 μg equivalents/mL | Concentration of radioactivity in Recovered White Blood Cells ([1]; 48 h): BLQ | Cmax, total radioactivity ([1]; Plasma): 221 ng/mL | Cmax, total radioactivity ([1]; WBCD blood): 33 ng/mL | Cmax, total radioactivity ([1]; Whole blood): 186 ng/mL | Blood ([2]; 1 h): 0.081 µg/mL | Non-plasma compartment ([2]; 1 h): 11.7 | Partition coefficient ([2]; 1 h): 88.3 | Plasma ([2]; 1 h): 0.110 µg/mL | Blood ([2]; 2 h): 0.059^1 μg/mL | Non-plasma compartment ([2]; 2 h): 20.3 | Partition coefficient ([2]; 2 h): 79.7 | Plasma ([2]; 2 h): 0.084 µg/mL | Blood ([2]; 4 h): 0.054 µg/mL | Non-plasma compartment ([2]; 4 h): 24.4 | Partition coefficient ([2]; 4 h): 75.6 | Plasma ([2]; 4 h): 0.068 µg/mL | Blood ([2]; 8 h): 0.070 µg/mL | Non-plasma compartment ([2]; 8 h): 22.9 | Partition coefficient ([2]; 8 h): 77.1 | Plasma ([2]; 8 h): 0.090 µg/mL | Blood ([2]; 24 h): 0.120 µg/mL | Non-plasma compartment ([2]; 24 h): 27.0 | Partition coefficient ([2]; 24 h): 73.0 | Plasma ([2]; 24 h): 0.146 µg/mL | Blood ([2]; 48 h): 0.186 µg/mL | Non-plasma compartment ([2]; 48 h): 28.7 | Partition coefficient ([2]; 48 h): 71.3 | Plasma ([2]; 48 h): 0.221 µg/mL

Reference: patent US20260151518A1, “LEUKOCYTE-SPECIFIC CELL PENETRATING MOLECULES” (Amytrx Therapeutics, Inc., priority 2021, published 2026)
